{"source": "patent US12447190B1", "about": "“Vasopressin premix systems and uses thereof” (Baxter International Inc., priority 2023, dated 2025)", "origin": "cited, not measured here", "key": {"[1]": {"test_system": "patients with vasodilatory shock"}}, "data": [{"smiles": "NC(=O)CC[C@@H]1NC(=O)[C@H](Cc2ccccc2)NC(=O)[C@H](Cc2ccc(O)cc2)NC(=O)[C@@H](N)CSSC[C@@H](C(=O)N2CCC[C@H]2C(=O)N[C@@H](CCCN=C(N)N)C(=O)NCC(N)=O)NC(=O)[C@H](CC(N)=O)NC1=O", "note": "[vasopressin, Cyclo (1-6) L-Cysteinyl-L-Tyrosyl-L-Phenylalanyl-L-Glutaminyl-L-Asparaginyl-L-Cysteinyl-L-Prolyl-L-Arginyl-L-Glycinamide]", "values": [{"measurement": "time for pressor effect to fade", "setting": "[1]; after stopping the infusion", "value": "≤ 20", "unit": "min"}, {"measurement": "time for pressor effect to reach its peak", "setting": "[1]; infusion in patients", "value": "≤ 15", "unit": "min"}, {"measurement": "time to steady state plasma concentrations", "setting": "continuous intravenous infusion", "value": 30, "unit": "min"}, {"measurement": "vasopressin plasma concentrations versus infusion rate", "setting": "infusion rates from 10 to 200 U/kg/min", "value": "increases linearly"}]}]}
